# Measurements: publication PMC6476959, “Novel 3,4-Dihydroisocoumarins Inhibit Human P-gp and BCRP in Multidrug Resistant Tumors and Demonstrate Substrate Inhibition of Yeast Pdr5” (Frontiers in Pharmacology, 2019)
# Legend:
# [1] = system: P-gp expressing HCT-15 cells; experiment: Sensitization of HCT-15 cells to doxorubicin (co-treatment, cell viability); type: cell-based, human
# Method: (§1) Cytotoxic activity of test compounds was analyzed after 48 h using the CellTiter-Glo Luminescent Cell Viability Assay published previously ([Weber et al., 2017]) in 384-well plates with the following cell densities: A549, MCF-7/MX: 2 × 10^3 cells/well; HCT-15: 3 × 10^3 cells/well; H69AR: 5 × 10^3 cells/well. Pipetting was conducted with the CyBi-Well 96-channel simultaneous pipettor (Analytik Jena AG, Jena, Germany). For generation of dose-response curves and calculation of IC50 values, the four-parameter logistic model was applied.
# (§2) The ability of identified inhibitors of P-gp and BCRP to sensitize HCT-15 or MCF-7/MX cells to chemotherapy was analyzed by co-treatment with test compounds and doxorubicin or mitoxantrone, respectively. Cells were incubated with a serial dilution of the chemotherapeutic drug alone or in combination with fixed concentrations of the test compounds or positive controls (2.5 μM PSC833 and 1 μM Ko143, respectively). Fold change of drug IC50 was calculated with the formula IC50 (drug alone)/IC50 (drug with modulator).
# A549 cells = experiment: CellTiter-Glo cell viability assay (cytotoxicity), A549; type: cell-based, human; conditions: Homo sapiens, A549; 48 h, mean ± SEM
# Method: (§3) The human lung adenocarcinoma cell line A549 was cultured in DMEM medium supplemented with 10% fetal bovine serum (FBS), 100 U/mL penicillin and 100 μg/mL streptomycin. P-gp-expressing human colon adenocarcinoma cells HCT-15 were cultured in RPMI 1640 medium supplemented with 10% FBS, 100 U/mL penicillin and 100 μg/mL streptomycin. BCRP-expressing MCF-7/MX human breast adenocarcinoma cells were cultured in DMEM medium supplemented with 10% FBS, 100 U/mL penicillin and 100 μg/mL streptomycin. MRP1-expressing H69AR human small cell lung cancer cells were cultured in RPMI 1640 medium (ATCC modification) supplemented with 20% FBS, 100 U/mL penicillin and 100 μg/mL streptomycin. All cancer cell lines employed have been systematically characterized regarding their respective ABC transporter expression profile ([Sachs et al., 2019]).
# as §1
# HCT-15 cells = experiment: CellTiter-Glo cell viability assay (cytotoxicity), HCT-15; type: cell-based; conditions: Homo sapiens, 48 h, P-gp expressing, mean ± SEM
# Method: as §3, §1
# MCF-7/MX cells = experiment: CellTiter-Glo cell viability assay (cytotoxicity), MCF-7/MX; type: cell-based; conditions: Homo sapiens, MCF7/MX; 48 h, BCRP-expressing, mean ± SEM
# Method: as §3, §1
# H69AR cells = experiment: CellTiter-Glo cell viability assay (cytotoxicity), H69AR; type: cell-based; conditions: Homo sapiens, 48 h, MRP1-expressing, mean ± SEM
# Method: as §3, §1
# P-gp = target: T1, P-gp (Homo sapiens, UniProt P08183); experiment: P-gp transport assay (calcein-AM) in HCT-15 cells; type: cell-based
# T1 construct: endogenous in cells; host or cells: HCT-15 human colon adenocarcinoma cells
# Method: The transport of calcein-AM by P-gp and its modulation by test compounds was analyzed in the P-gp-expressing HCT-15 cell line. 5 × 10^4 cells were seeded in black 96-well plates and incubated at 37°C and 5% CO2 for 24 h. The culture medium was removed and replaced by Hank’s balanced salt solution supplemented with 10 mM HEPES. Test compounds, 2.5 μM PSC833 (positive control) or 0.5% DMSO (negative control) were added in triplicates and incubated for 30 min at 37°C and 5% CO2. The substrate calcein-AM was added (final concentration 0.5 μM) and the fluorescence (excitation 485 nm, emission 520 nm) was measured over 3 h with the Infinite m1000 pro microplate reader (Tecan Group AG, Männedorf, Switzerland) at 37°C. The transport activity of P-gp was analyzed by determining the slope of the linear part of the fluorescence-time curve (0–30 min) using linear regression. Normalization of the data to PSC833 (100% inhibition) and DMSO (0% inhibition) was performed.
# BCRP = target: T2, BCRP (Homo sapiens, UniProt Q9UNQ0); experiment: BCRP transport assay (Hoechst 33342) in MCF-7/MX cells; type: cell-based
# T2 construct: endogenous in cells; host or cells: MCF-7/MX human breast adenocarcinoma cells (mitoxantrone-selected)
# T2 sequence (Q9UNQ0 1-655): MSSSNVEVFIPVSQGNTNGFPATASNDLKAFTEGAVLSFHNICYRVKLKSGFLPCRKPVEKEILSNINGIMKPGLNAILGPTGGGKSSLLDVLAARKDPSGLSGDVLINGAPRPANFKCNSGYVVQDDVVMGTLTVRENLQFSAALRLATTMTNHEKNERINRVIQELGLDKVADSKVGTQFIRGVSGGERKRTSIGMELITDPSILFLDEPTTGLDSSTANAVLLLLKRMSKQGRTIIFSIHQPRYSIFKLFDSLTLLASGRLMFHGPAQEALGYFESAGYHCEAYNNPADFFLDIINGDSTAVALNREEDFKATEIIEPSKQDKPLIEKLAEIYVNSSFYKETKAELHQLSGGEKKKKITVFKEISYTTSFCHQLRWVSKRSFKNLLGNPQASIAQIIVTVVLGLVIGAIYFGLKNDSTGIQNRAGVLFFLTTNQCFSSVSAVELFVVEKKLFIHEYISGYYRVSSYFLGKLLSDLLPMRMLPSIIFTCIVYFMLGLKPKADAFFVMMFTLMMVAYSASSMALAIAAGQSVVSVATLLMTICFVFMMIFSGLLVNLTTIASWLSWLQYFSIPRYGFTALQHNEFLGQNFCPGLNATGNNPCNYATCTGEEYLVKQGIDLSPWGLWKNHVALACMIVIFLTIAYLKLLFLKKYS
# Method: Breast cancer resistance protein transport activity was determined in the BCRP-expressing MCF-7/MX cell line. Hoechst 33342 was applied as transporter substrate and 1 μM Ko143 as positive control or 0.5% DMSO as negative control and the assay was performed according to the P-gp assay. Fluorescence was measured at an excitation wavelength of 355 nm and emission wavelength of 460 nm. The transport activity of BCRP was analyzed by determining the plateau of the fluorescence-time curve by using non-linear regression (one-phase exponential fit). Normalization of the data to Ko143 (100% inhibition) and DMSO (0% inhibition) was performed.
# Pdr5 = target: T3, Pdr5 (Saccharomyces cerevisiae, UniProt P33302); experiment: Pdr5 ATPase assay (oligomycin-sensitive) in plasma membrane preparations; type: biochemical; conditions: highest concentrations (10 mM), in comparison to Pdr5 WT in the absence of any compound
# T3 construct: effect on (A) the transport activity of Pdr5 WT and (B) their effect on the ATPase activity; made in house; host or cells: S. cerevisiae YRE1001 (pdr1-3 background), isolated plasma membranes
# Method: Saccharomyces cerevisiae cells expressing Pdr5 WT or the E1036Q (EQ) mutant were cultured to an OD600 of 1.5 in YPD-media at 25°C. The nitrogen source was replenished by addition of a 10th volume of 5x YP (50 g/l yeast extract, 100 g/l peptone). The cells were grown to an OD of 3.5 and harvested (5000 ×g at 4°C for 15 min). The isolation of Pdr5 containing PMs was performed as described ([Kolaczkowski et al., 1996]; [Ernst et al., 2008]).
# Oligomycin (OM)-sensitive ATPase activity was measured from 0.8 μg PM containing Pdr5 incubated with 2 mM ATP, 5 mM MgCl2 in 270 mM TRIS-glycine buffer (pH 9.5) and 2.5 μl of the test compounds or DMSO as a control in a total volume of 100 μl. To reduce the background activities, 0.2 mM ammonium molybdate, 10 mM NaN3 and 50 mM KNO3, respectively, were added ([Dufour et al., 1988]; [Goffeau and Dufour, 1988]). In a second assay, OM (20 μg/ml) was added to an otherwise identical setup. After incubation at 30°C for 20 min, the reaction was stopped by adding 25 μl of the reaction to 175 μl 40 mM H2SO4. The amount of released inorganic phosphate was determined by a colometric assay in 96-well plates ([Goffeau and Dufour, 1988]; [Decottignies et al., 1994]; [Wada et al., 2002]). The difference of both assays ( ± OM) corresponds to the specific ATPase activity of Pdr5 ([Ernst et al., 2008]).
# [2] = Solubility observation in transporter assays; type: physicochemical; conditions: could not be employed at 50 μM
# [3] = system: BCRP-expressing MCF-7/MX cells; experiment: Sensitization of MCF-7/MX cells to mitoxantrone (co-treatment, cell viability); type: cell-based, human
# Method: as §1, §2
# T3 sequence (P33302 whole entry): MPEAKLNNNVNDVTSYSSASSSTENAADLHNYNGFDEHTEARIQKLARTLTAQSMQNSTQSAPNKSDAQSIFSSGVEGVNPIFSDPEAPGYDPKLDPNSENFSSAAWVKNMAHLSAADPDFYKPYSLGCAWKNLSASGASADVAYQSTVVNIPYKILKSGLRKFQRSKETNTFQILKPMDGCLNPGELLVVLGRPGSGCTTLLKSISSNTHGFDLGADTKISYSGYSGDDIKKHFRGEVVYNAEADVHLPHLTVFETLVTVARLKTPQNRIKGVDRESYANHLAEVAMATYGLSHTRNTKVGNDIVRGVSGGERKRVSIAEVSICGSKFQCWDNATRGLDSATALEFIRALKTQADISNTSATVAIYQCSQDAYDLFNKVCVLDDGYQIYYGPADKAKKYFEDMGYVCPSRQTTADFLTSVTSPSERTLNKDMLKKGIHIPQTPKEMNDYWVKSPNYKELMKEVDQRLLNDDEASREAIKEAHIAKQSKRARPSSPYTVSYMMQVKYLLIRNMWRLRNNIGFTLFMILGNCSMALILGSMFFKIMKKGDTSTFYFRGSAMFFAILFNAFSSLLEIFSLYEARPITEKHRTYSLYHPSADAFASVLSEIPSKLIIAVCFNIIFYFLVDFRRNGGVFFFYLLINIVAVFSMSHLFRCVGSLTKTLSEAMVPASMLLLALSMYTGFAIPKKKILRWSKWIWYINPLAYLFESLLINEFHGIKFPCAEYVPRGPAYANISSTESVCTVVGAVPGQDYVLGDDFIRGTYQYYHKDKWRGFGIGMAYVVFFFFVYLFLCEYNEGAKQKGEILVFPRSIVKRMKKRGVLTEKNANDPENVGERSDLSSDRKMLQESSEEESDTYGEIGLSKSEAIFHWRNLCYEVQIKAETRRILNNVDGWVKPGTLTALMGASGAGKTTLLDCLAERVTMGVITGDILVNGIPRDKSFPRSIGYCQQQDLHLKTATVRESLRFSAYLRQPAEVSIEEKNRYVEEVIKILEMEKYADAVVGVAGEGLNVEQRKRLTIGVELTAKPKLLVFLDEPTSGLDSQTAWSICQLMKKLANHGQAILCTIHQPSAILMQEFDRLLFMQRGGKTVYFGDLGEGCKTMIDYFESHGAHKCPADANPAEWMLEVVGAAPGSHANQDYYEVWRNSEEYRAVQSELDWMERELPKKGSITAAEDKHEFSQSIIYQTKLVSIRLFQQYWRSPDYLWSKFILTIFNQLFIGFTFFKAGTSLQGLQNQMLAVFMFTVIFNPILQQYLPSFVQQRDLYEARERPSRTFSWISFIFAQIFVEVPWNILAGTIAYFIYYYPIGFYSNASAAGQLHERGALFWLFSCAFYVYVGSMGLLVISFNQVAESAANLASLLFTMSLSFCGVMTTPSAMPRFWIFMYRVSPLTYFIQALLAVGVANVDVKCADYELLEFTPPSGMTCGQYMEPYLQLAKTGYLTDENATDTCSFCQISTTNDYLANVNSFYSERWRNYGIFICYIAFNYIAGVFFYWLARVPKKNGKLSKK
# T1 sequence (P08183 whole entry): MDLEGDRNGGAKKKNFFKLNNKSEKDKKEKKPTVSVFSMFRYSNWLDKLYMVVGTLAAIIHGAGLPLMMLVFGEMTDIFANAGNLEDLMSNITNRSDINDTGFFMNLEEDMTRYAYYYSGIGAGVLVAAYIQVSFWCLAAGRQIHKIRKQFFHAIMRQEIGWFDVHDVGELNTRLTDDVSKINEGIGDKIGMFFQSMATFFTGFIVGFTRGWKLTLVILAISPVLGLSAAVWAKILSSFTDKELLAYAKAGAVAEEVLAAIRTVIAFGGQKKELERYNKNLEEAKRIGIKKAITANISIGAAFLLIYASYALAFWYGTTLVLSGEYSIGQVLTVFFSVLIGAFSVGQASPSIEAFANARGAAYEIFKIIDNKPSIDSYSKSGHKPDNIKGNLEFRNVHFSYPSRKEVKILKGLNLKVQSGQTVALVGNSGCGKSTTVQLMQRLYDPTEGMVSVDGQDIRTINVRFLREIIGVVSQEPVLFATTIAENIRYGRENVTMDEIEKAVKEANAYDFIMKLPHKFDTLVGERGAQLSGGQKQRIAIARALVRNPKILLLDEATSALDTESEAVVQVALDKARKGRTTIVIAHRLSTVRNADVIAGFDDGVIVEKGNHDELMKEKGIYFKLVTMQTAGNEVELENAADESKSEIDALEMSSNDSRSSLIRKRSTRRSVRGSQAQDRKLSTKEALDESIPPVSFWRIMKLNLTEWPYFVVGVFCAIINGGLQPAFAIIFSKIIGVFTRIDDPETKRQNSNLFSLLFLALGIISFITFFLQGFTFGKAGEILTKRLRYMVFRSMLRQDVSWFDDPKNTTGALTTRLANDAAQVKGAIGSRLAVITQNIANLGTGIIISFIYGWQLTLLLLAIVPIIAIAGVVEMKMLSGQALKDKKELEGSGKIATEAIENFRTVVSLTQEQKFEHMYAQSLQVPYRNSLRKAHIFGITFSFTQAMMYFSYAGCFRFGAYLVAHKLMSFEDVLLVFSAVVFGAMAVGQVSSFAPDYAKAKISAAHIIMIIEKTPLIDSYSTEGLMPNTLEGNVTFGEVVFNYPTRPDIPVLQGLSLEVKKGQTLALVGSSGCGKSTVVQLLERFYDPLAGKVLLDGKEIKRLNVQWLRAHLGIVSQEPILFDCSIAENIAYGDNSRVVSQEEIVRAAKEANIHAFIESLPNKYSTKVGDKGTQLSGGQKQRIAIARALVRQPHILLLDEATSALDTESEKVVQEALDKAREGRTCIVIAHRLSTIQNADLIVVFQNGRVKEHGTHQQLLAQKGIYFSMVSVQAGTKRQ
compound,measurement,setting,value
"COc1cccc2c1C(=O)c1c(O)c3c(c(O)c1C2=O)C[C@@](O)(C(=O)CO)C[C@@H]3O[C@H]1C[C@H](N)[C@H](O)[C@H](C)O1 [Doxorubicin, doxorubicin, reference compound]",IC50,"[1]; Homo sapiens, HCT-15, doxorubicin alone, 48 h",8.5 ± 0.7 µM
same,Fold change of doxorubicin IC50,[1]; doxorubicin alone (reference),1.00
"O=c1oc2c(O)c(O)cc3c(=O)oc4c(O)c(O)cc1c4c23 [Ellagic acid, ellagic acid]",IC50,A549 cells,> 50 µM
same,IC50,HCT-15 cells,> 50 µM
same,IC50,MCF-7/MX cells,> 50 µM
same,IC50,H69AR cells,> 50 µM
same,Inhibition of P-gp (in words),P-gp,did not display any inhibitory activity
same,Inhibition of BCRP (in words),BCRP,did not display any inhibitory activity
same,ATPase activity of Pdr5 WT inhibited to (initial screen),Pdr5,56%
same,ATPase activity of Pdr5 WT inhibited to (initial screen),Pdr5; listed as ellagic acid,50%
same,Solubility (in words),[2],low solubility
"O=C1c2c(O)ccc(O)c2C(=O)c2c(NCCNCCO)ccc(NCCNCCO)c21 [Mitoxantrone, mitoxantrone, reference compound]",IC50,"[3]; Homo sapiens, MCF7/MX, mitoxantrone alone, 48 h",19.6 ± 2.4 µM
same,Fold change of mitoxantrone IC50,[3]; mitoxantrone alone (reference),1.00
